# Measurements reported in US12780800B1, “Triazole-pyridinyl substituted azacyclohexyl acetic acid compounds as LPA receptor antagonists” (Viva Star Biosciences Limited, priority 2021, dated 2022).
# pIC50: −log10 of the molar value.
# Target: T1, LPA1 (Homo sapiens, UniProt Q92633)
# T1 construct: ProLink (PK) beta-galactosidase enzyme-fragment tag; host or cells: CHO-K1
# Assay: LPA1 calcium flux assay (LPA1 functional antagonist assay)
# Type: cell-based
# Conditions: PathHunter CHO-K1 EDG2 β-Arrestin cell line; calcium indicator dye; stimulated with EC80 concentration of LPA; FLIPR Tetra
# Procedure, shortened: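 The LPA1 antagonist readout was intracellular calcium flux, and IC50 values were calculated from it. Plates stood 30 min at RT after compound addition. Cells, grown overnight, had first taken up calcium dye over 45 min at 37 °C.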
# T1 sequence (Q92633 whole entry, the tested form may be a part): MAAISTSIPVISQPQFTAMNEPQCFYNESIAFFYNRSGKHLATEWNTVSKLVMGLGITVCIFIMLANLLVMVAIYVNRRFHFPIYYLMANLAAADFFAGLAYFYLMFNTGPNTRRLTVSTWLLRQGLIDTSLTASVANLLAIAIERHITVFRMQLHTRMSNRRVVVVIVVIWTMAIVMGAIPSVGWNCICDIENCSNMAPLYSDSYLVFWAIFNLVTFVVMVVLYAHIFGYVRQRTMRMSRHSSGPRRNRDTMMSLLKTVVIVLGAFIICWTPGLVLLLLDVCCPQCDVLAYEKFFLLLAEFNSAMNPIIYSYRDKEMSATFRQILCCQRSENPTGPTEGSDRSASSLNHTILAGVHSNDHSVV
row,pIC50,Compound
1,> 7.00,"CCc1nc(-c2nnn(C)c2COc2cc(C3CCC3)ncn2)ccc1N1CCC[C@H](CC(=O)O)C1 [Example 80, (R)-2-(1-(6-(5-(((6-cyclobutylpyrimidin-4-yl)oxy)methyl)-1-methyl-1H-1,2,3-triazol-4-yl)-2-ethylpyridin-3-yl)piperidin-3-yl)acetic acid]"
2,< 5.30,"CCc1nc(-c2nnn(C)c2COc2nccc(C3CCC3)n2)ccc1N1CCC[C@@H](CC(=O)O)C1 [Example 81, (S)-2-(1-(6-(5-(((4-cyclobutylpyrimidin-2-yl)oxy)methyl)-1-methyl-1H-1,2,3-triazol-4-yl)-2-ethylpyridin-3-yl)piperidin-3-yl)acetic acid]"
3,> 7.00,"CCc1nc(-c2nnn(C)c2COc2cc(-n3cccn3)ncn2)ccc1N1CCC[C@H](CC(=O)O)C1 [Example 82, (R)-2-(1-(6-(5-(((6-(1H-pyrazol-1-yl)pyrimidin-4-yl)oxy)methyl)-1-methyl-1H-1,2,3-triazol-4-yl)-2-ethylpyridin-3-yl)piperidin-3-yl)acetic acid]"
4,6.30 to 7.00,"CCc1nc(-c2nnn(C)c2COc2nccc(N3CCCC3)n2)ccc1N1CCC[C@H](CC(=O)O)C1 [Example 83, (R)-2-(1-(2-ethyl-6-(1-methyl-5-(((4-(pyrrolidin-1-yl)pyrimidin-2-yl)oxy)methyl)-1H-1,2,3-triazol-4-yl)pyridin-3-yl)piperidin-3-yl)acetic acid]"
5,> 7.00,"Cc1nc(-c2nnn(C)c2COc2nccc(C3CCC3)n2)ccc1N1CCC[C@H](CC(=O)O)C1 [Example 84, (R)-2-(1-(6-(5-(((4-cyclobutylpyrimidin-2-yl)oxy)methyl)-1-methyl-1H-1,2,3-triazol-4-yl)-2-methylpyridin-3-yl)piperidin-3-yl)acetic acid]"
6,> 7.00,"Cc1nc(-c2nnn(C)c2COc2cc(-n3cccn3)ncn2)ccc1N1CCC[C@H](CC(=O)O)C1 [Example 85, (R)-2-(1-(6-(5-(((6-(1H-pyrazol-1-yl)pyrimidin-4-yl)oxy)methyl)-1-methyl-1H-1,2,3-triazol-4-yl)-2-methylpyridin-3-yl)piperidin-3-yl)acetic acid]"
7,6.30 to 7.00,"Cc1nc(-c2nnn(C)c2COc2nnccc2CC(C)C)ccc1N1C[C@@H](CC(=O)O)CC(F)(F)C1 [Example 86, (S)-2-(5,5-difluoro-1-(6-(5-(((4-isobutylpyridazin-3-yl)oxy)methyl)-1-methyl-1H-1,2,3-triazol-4-yl)-2-methylpyridin-3-yl)piperidin-3-yl)acetic acid]"
8,> 7.00,"CCc1nc(-c2cnn(C)c2COc2nccc(C3CCC3)n2)ncc1N1C[C@@H](CC(=O)O)CC(F)(F)C1 [Example 87, (S)-2-(1-(2-(5-(((4-cyclobutylpyrimidin-2-yl)oxy)methyl)-1-methyl-1H-pyrazol-4-yl)-4-ethylpyrimidin-5-yl)-5,5-difluoropiperidin-3-yl)acetic acid]"
9,6.30 to 7.00,"CCc1nc(-c2nnn(C)c2COc2nccc(C3CCC3)n2)cc(F)c1N1CCCC(CC(=O)O)C1 (stereo not drawn) [Example 88, 2-(1-(6-(5-(((4-cyclobutylpyrimidin-2-yl)oxy)methyl)-1-methyl-1H-1,2,3-triazol-4-yl)-2-ethyl-4-fluoropyridin-3-yl)piperidin-3-yl)acetic acid]"
10,> 7.00,"Cc1nc(-c2cnn(C)c2COc2cc(-n3cccn3)ncn2)ccc1N1C[C@@H](CC(=O)O)CC(F)(F)C1 [Example 89, (S)-2-(1-(6-(5-(((6-(1H-pyrazol-1-yl)pyrimidin-4-yl)oxy)methyl)-1-methyl-1H-pyrazol-4-yl)-2-methylpyridin-3-yl)-5,5-difluoropiperidin-3-yl)acetic acid]"
11,> 7.00,"CCc1nc(-c2cnn(C)c2COc2cc(-n3cccn3)ncn2)ccc1N1CCC[C@H](CC(=O)O)C1 [Example 90, (R)-2-(1-(6-(5-(((6-(1H-pyrazol-1-yl)pyrimidin-4-yl)oxy)methyl)-1-methyl-1H-pyrazol-4-yl)-2-ethylpyridin-3-yl)piperidin-3-yl)acetic acid]"
12,> 7.00,"CCc1nc(-c2nnn(C)c2COc2ncnc(C3CCC3)n2)ccc1N1CCC[C@H](CC(=O)O)C1 [Example 95, (R)-2-(1-(6-(5-(((4-cyclobutyl-1,3,5-triazin-2-yl)oxy)methyl)-1-methyl-1H-1,2,3-triazol-4-yl)-2-ethylpyridin-3-yl)piperidin-3-yl)acetic acid]"
13,6.30 to 7.00,"CCc1nc(-c2nnn(C)c2COc2nc(C3CCC3)nc(N3CCOCC3)n2)ccc1N1CCC[C@H](CC(=O)O)C1 [Example 96, (R)-2-(1-(6-(5-(((4-cyclobutyl-6-morpholino-1,3,5-triazin-2-yl)oxy)methyl)-1-methyl-1H-1,2,3-triazol-4-yl)-2-ethylpyridin-3-yl)piperidin-3-yl)acetic acid]"
14,6.30 to 7.00,"CCc1nc(-c2nnn(C)c2COc2cc(-n3ccnn3)ncn2)ccc1N1CCC[C@H](CC(=O)O)C1 [Example 97, 2-[(3R)-1-{2-ethyl-6-[1-methyl-5-({[6-(1H-1,2,3-triazol-1-yl)pyrimidin-4-yl]oxy}methyl)-1H-1,2,3-triazol-4-yl]pyridin-3-yl}piperidin-3-yl]acetic acid]"
15,6.30 to 7.00,"CCc1nc(-c2nnn(C)c2COc2cc(-n3nccn3)ncn2)ccc1N1CCC[C@H](CC(=O)O)C1 [Example 98, (R)-2-(1-(6-(5-(((6-(2H-1,2,3-triazol-2-yl)pyrimidin-4-yl)oxy)methyl)-1-methyl-1H-1,2,3-triazol-4-yl)-2-ethylpyridin-3-yl)piperidin-3-yl)acetic acid]"
16,> 7.00,"Cc1nc(-c2nnn(C)c2COc2cc(-n3ccnn3)ncn2)ccc1N1C[C@@H](CC(=O)O)CC(F)(F)C1 [Example 99, (S)-2-(1-(6-(5-(((6-(1H-1,2,3-triazol-1-yl)pyrimidin-4-yl)oxy)methyl)-1-methyl-1H-1,2,3-triazol-4-yl)-2-methylpyridin-3-yl)-5,5-difluoropiperidin-3-yl)acetic acid]"
17,> 7.00,"CCc1nc(-c2nnn(C)c2COc2nccc(-n3cccn3)n2)ccc1N1CCC[C@H](CC(=O)O)C1 [Example 101, (R)-2-(1-(6-(5-(((4-(1H-pyrazol-1-yl)pyrimidin-2-yl)oxy)methyl)-1-methyl-1H-1,2,3-triazol-4-yl)-2-ethylpyridin-3-yl)piperidin-3-yl)acetic acid]"
18,> 7.00,"Cc1nc(-c2nnn(C)c2COc2nccc(-n3cccn3)n2)ccc1N1CCC[C@H](CC(=O)O)C1 [Example 102, (R)-2-(1-(6-(5-(((4-(1H-pyrazol-1-yl)pyrimidin-2-yl)oxy)methyl)-1-methyl-1H-1,2,3-triazol-4-yl)-2-methylpyridin-3-yl)piperidin-3-yl)acetic acid]"
19,> 7.00,"Cc1nc(-c2nnn(C)c2COc2cc(-n3cccn3)ccn2)ccc1N1CCC[C@H](CC(=O)O)C1 [Example 103, (R)-2-(1-(6-(5-(((4-(1H-pyrazol-1-yl)pyridin-2-yl)oxy)methyl)-1-methyl-1H-1,2,3-triazol-4-yl)-2-methylpyridin-3-yl)piperidin-3-yl)acetic acid]"
20,> 7.00,"Cc1nc(-c2nnn(C)c2COc2cc(-n3nccn3)ccn2)ccc1N1CCC[C@H](CC(=O)O)C1 [Example 104, (R)-2-(1-(6-(5-(((4-(2H-1,2,3-triazol-2-yl)pyridin-2-yl)oxy)methyl)-1-methyl-1H-1,2,3-triazol-4-yl)-2-methylpyridin-3-yl)piperidin-3-yl)acetic acid]"
21,> 7.00,"Cc1nc(-c2onc(C)c2COc2cc(-n3cccn3)ncn2)ccc1N1C[C@@H](CC(=O)O)CC(F)(F)C1 [Example 105, (S)-2-(1-(6-(4-(((6-(1H-pyrazol-1-yl)pyrimidin-4-yl)oxy)methyl)-3-methylisoxazol-5-yl)-2-methylpyridin-3-yl)-5,5-difluoropiperidin-3-yl)acetic acid]"
22,< 5.30,"CCCn1ccnc(OCc2c(-c3ccc(N4C[C@@H](CC(=O)O)CC(F)(F)C4)c(C)n3)nnn2C)c1=O [Example 106, (S)-2-(5,5-difluoro-1-(2-methyl-6-(1-methyl-5-(((3-oxo-4-propyl-3,4-dihydropyrazin-2-yl)oxy)methyl)-1H-1,2,3-triazol-4-yl)pyridin-3-yl)piperidin-3-yl)acetic acid]"
23,< 5.30,"CCCn1ccc(=O)c(OCc2c(-c3ccc(N4C[C@@H](CC(=O)O)CC(F)(F)C4)c(CC)n3)nnn2C)c1 [Example 107, (S)-2-(1-(2-ethyl-6-(1-methyl-5-(((4-oxo-1-propyl-1,4-dihydropyridin-3-yl)oxy)methyl)-1H-1,2,3-triazol-4-yl)pyridin-3-yl)-5,5-difluoropiperidin-3-yl)acetic acid]"
24,5.30 to 6.30,"CCCn1nc(OCc2c(-c3ccc(N4C[C@@H](CC(=O)O)CC(F)(F)C4)c(C)n3)nnn2C)ccc1=O [Example 108, (S)-2-(5,5-difluoro-1-(2-methyl-6-(1-methyl-5-(((6-oxo-1-propyl-1,6 dihydropyridazin-3-yl)oxy)methyl)-1H-1,2,3-triazol-4-yl)pyridin-3-yl)piperidin-3-yl)acetic acid]"
25,5.30 to 6.30,"CCCn1cc(OCc2c(-c3ccc(N4C[C@@H](CC(=O)O)CC(F)(F)C4)c(CC)n3)nnn2C)c(=O)cn1 [Example 109, (S)-2-(1-(2-ethyl-6-(1-methyl-5-(((5-oxo-2-propyl-2,5-dihydropyridazin-4-yl)oxy)methyl)-1H-1,2,3-triazol-4-yl)pyridin-3-yl)-5,5-difluoropiperidin-3-yl)acetic acid]"
26,< 5.30,"CCCc1cn(C)c(=O)c(OCc2c(-c3ccc(N4C[C@@H](CC(=O)O)CC(F)(F)C4)c(CC)n3)nnn2C)n1 [Example 110, (S)-2-(1-(2-ethyl-6-(1-methyl-5-(((4-methyl-3-oxo-6-propyl-3,4-dihydropyrazin-2-yl)oxy)methyl)-1H-1,2,3-triazol-4-yl)pyridin-3-yl)-5,5-difluoropiperidin-3-yl)acetic acid]"
27,< 5.30,"CCCn1ccc(=O)c(OCc2c(-c3ccc(N4C[C@@H](CC(=O)O)CC(F)(F)C4)c(CC)n3)nnn2C)n1 [Example 111, (S)-2-(1-(2-ethyl-6-(1-methyl-5-(((4-oxo-1-propyl-1,4-dihydropyridazin-3-yl)oxy)methyl)-1H-1,2,3-triazol-4-yl)pyridin-3-yl)-5,5-difluoropiperidin-3-yl)acetic acid]"
